{"source": "PubChem BioAssay AID1963825", "about": "(Molecular Pharmacology Branch, DTP, NCI, 2024)", "assay": "Anticancer human tumor 997537-175-T-J1-PDC patient-derived colon adenocarcinoma cell line growth inhibition [POLQ]", "conditions": "997537-175-T-J1-PDC complex spheroid viability, combination with POLQ inhibitors; for IC50: curve of first compound; for viability, T/C: stronger effect = lower value", "how_it_was_run": "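Complex spheroid viability model combining PDC tumour cells with endothelial (HUVEC) and MSC stromal cells. Novobiocin, ART-558 or RP6685 were tested singly and in combination with standard and investigational anticancer drugs. Each was titrated in half-log steps from near clinical Cmax, or from 10 microM where Cmax was unknown.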", "key": {"[1]": {"conditions": "second compound 0.0316 µM, first compound 0.0316 µM"}, "[2]": {"conditions": "second compound 0.0316 µM, first compound 0.1 µM"}, "[3]": {"conditions": "second compound 0.0316 µM, first compound 0.316 µM"}, "[4]": {"conditions": "second compound 0.0316 µM, first compound 1 µM"}, "[5]": {"conditions": "second compound 0.1 µM, first compound 0.0316 µM"}, "[6]": {"conditions": "second compound 0.1 µM, first compound 0.1 µM"}, "[7]": {"conditions": "second compound 0.1 µM, first compound 0.316 µM"}, "[8]": {"conditions": "second compound 0.1 µM, first compound 1 µM"}, "[9]": {"conditions": "second compound 0.316 µM, first compound 0.0316 µM"}, "[10]": {"conditions": "second compound 0.316 µM, first compound 0.1 µM"}, "[11]": {"conditions": "second compound 0.316 µM, first compound 0.316 µM"}, "[12]": {"conditions": "second compound 0.316 µM, first compound 1 µM"}, "[13]": {"conditions": "second compound 1 µM, first compound 0.0316 µM"}, "[14]": {"conditions": "second compound 1 µM, first compound 0.1 µM"}, "[15]": {"conditions": "second compound 1 µM, first compound 0.316 µM"}, "[16]": {"conditions": "second compound 1 µM, first compound 1 µM"}, "[17]": {"conditions": "second compound 3.16 µM, first compound 0.0316 µM"}, "[18]": {"conditions": "second compound 3.16 µM, first compound 0.1 µM"}, "[19]": {"conditions": "second compound 3.16 µM, first compound 0.316 µM"}, "[20]": {"conditions": "second compound 3.16 µM, first compound 1 µM"}, "[21]": {"conditions": "second compound 10 µM, first compound 0.0316 µM"}, "[22]": {"conditions": "second compound 10 µM, first compound 0.1 µM"}, "[23]": {"conditions": "second compound 10 µM, first compound 0.316 µM"}, "[24]": {"conditions": "second compound 10 µM, first compound 1 µM"}}, "data": [{"compound": "COc1cccc(OCCCN)c1-c1cc(Nc2cnc(C#N)cn2)n[nH]1", "note": "+ Nc1ccc(C#CCN(C(=O)Cc2ncc(C(F)(F)F)cc2C(F)(F)F)c2ccc(F)cc2)nn1;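 also: luminescence signal used as a surrogate for viable cells; spheroids exposed to drugs for seven days before readout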", "values": [{"measurement": "IC50", "setting": "second compound 0.0316 µM", "result": 110, "unit": "nM"}, {"measurement": "IC50", "setting": "second compound 0.1 µM", "result": 72, "unit": "nM"}, {"measurement": "IC50", "setting": "second compound 0.316 µM", "result": 54.4, "unit": "nM"}, {"measurement": "IC50", "setting": "second compound 1 µM", "result": 21.3, "unit": "nM"}, {"measurement": "IC50", "setting": "second compound 3.16 µM", "result": 48.8, "unit": "nM"}, {"measurement": "IC50", "setting": "second compound 10 µM", "result": 20.9, "unit": "nM"}, {"measurement": "viability, T/C", "setting": "second compound 0.0316 µM, first compound 0.00316 µM", "result": 100, "unit": "%"}, {"measurement": "viability, T/C", "setting": "second compound 0.0316 µM, first compound 0.01 µM", "result": 90.2, "unit": "%"}, {"measurement": "viability, T/C", "setting": "[1]", "result": 70.5, "unit": "%"}, {"measurement": "viability, T/C", "setting": "[2]", "result": 42.3, "unit": "%"}, {"measurement": "viability, T/C", "setting": "[3]", "result": 44, "unit": "%"}, {"measurement": "viability, T/C", "setting": "[4]", "result": 17.7, "unit": "%"}, {"measurement": "viability, T/C", "setting": "second compound 0.1 µM, first compound 0.00316 µM", "result": 89.1, "unit": "%"}, {"measurement": "viability, T/C", "setting": "second compound 0.1 µM, first compound 0.01 µM", "result": 96.8, "unit": "%"}, {"measurement": "viability, T/C", "setting": "[5]", "result": 70.5, "unit": "%"}, {"measurement": "viability, T/C", "setting": "[6]", "result": 43, "unit": "%"}, {"measurement": "viability, T/C", "setting": "[7]", "result": 22.2, "unit": "%"}, {"measurement": "viability, T/C", "setting": "[8]", "result": 23.2, "unit": "%"}, {"measurement": "viability, T/C", "setting": "second compound 0.316 µM, first compound 0.00316 µM", "result": 103, "unit": "%"}, {"measurement": "viability, T/C", "setting": "second compound 0.316 µM, first compound 0.01 µM", "result": 89.5, "unit": "%"}, {"measurement": "viability, T/C", "setting": "[9]", "result": 61.4, "unit": "%"}, {"measurement": "viability, T/C", "setting": "[10]", "result": 40.5, "unit": "%"}, {"measurement": "viability, T/C", "setting": "[11]", "result": 18, "unit": "%"}, {"measurement": "viability, T/C", "setting": "[12]", "result": 41.9, "unit": "%"}, {"measurement": "viability, T/C", "setting": "second compound 1 µM, first compound 0.00316 µM", "result": 89.8, "unit": "%"}, {"measurement": "viability, T/C", "setting": "second compound 1 µM, first compound 0.01 µM", "result": 61.1, "unit": "%"}, {"measurement": "viability, T/C", "setting": "[13]", "result": 50.3, "unit": "%"}, {"measurement": "viability, T/C", "setting": "[14]", "result": 21.8, "unit": "%"}, {"measurement": "viability, T/C", "setting": "[15]", "result": 40.6, "unit": "%"}, {"measurement": "viability, T/C", "setting": "[16]", "result": 36.2, "unit": "%"}, {"measurement": "viability, T/C", "setting": "second compound 3.16 µM, first compound 0.00316 µM", "result": 88.4, "unit": "%"}, {"measurement": "viability, T/C", "setting": "second compound 3.16 µM, first compound 0.01 µM", "result": 90.8, "unit": "%"}, {"measurement": "viability, T/C", "setting": "[17]", "result": 65.8, "unit": "%"}, {"measurement": "viability, T/C", "setting": "[18]", "result": 24.2, "unit": "%"}, {"measurement": "viability, T/C", "setting": "[19]", "result": 20.8, "unit": "%"}, {"measurement": "viability, T/C", "setting": "[20]", "result": 21.1, "unit": "%"}, {"measurement": "viability, T/C", "setting": "second compound 10 µM, first compound 0.00316 µM", "result": 84, "unit": "%"}, {"measurement": "viability, T/C", "setting": "second compound 10 µM, first compound 0.01 µM", "result": 85.1, "unit": "%"}, {"measurement": "viability, T/C", "setting": "[21]", "result": 30.4, "unit": "%"}, {"measurement": "viability, T/C", "setting": "[22]", "result": 24.9, "unit": "%"}, {"measurement": "viability, T/C", "setting": "[23]", "result": 34.1, "unit": "%"}, {"measurement": "viability, T/C", "setting": "[24]", "result": 20.5, "unit": "%"}]}, {"compound": "CC(C)n1c(=O)n(C)c2cnc3cc(F)c(-c4ccc(OCCCN5CCCCC5)nc4)cc3c21", "note": "+ COC1C(OC(N)=O)C(O)C(Oc2ccc3c(O)c(NC(=O)c4ccc(O)c(CC=C(C)C)c4)c(=O)oc3c2C)OC1(C)C", "values": [{"measurement": "IC50", "setting": "second compound 0.0316 µM", "result": "> 10000", "unit": "nM"}, {"measurement": "IC50", "setting": "second compound 0.1 µM", "result": "> 10000", "unit": "nM"}, {"measurement": "IC50", "setting": "second compound 0.316 µM", "result": "> 10000", "unit": "nM"}, {"measurement": "IC50", "setting": "second compound 1 µM", "result": "> 10000", "unit": "nM"}, {"measurement": "IC50", "setting": "second compound 3.16 µM", "result": "> 10000", "unit": "nM"}, {"measurement": "IC50", "setting": "second compound 10 µM", "result": "> 10000", "unit": "nM"}, {"measurement": "viability, T/C", "setting": "[1]", "result": 79, "unit": "%"}, {"measurement": "viability, T/C", "setting": "[2]", "result": 104, "unit": "%"}, {"measurement": "viability, T/C", "setting": "[3]", "result": 106, "unit": "%"}, {"measurement": "viability, T/C", "setting": "[4]", "result": 89.6, "unit": "%"}, {"measurement": "viability, T/C", "setting": "second compound 0.0316 µM, first compound 3.16 µM", "result": 102, "unit": "%"}, {"measurement": "viability, T/C", "setting": "second compound 0.0316 µM, first compound 10 µM", "result": 89.5, "unit": "%"}, {"measurement": "viability, T/C", "setting": "[5]", "result": 103, "unit": "%"}, {"measurement": "viability, T/C", "setting": "[6]", "result": 102, "unit": "%"}, {"measurement": "viability, T/C", "setting": "[7]", "result": 102, "unit": "%"}, {"measurement": "viability, T/C", "setting": "[8]", "result": 96, "unit": "%"}, {"measurement": "viability, T/C", "setting": "second compound 0.1 µM, first compound 3.16 µM", "result": 93.8, "unit": "%"}, {"measurement": "viability, T/C", "setting": "second compound 0.1 µM, first compound 10 µM", "result": 88.1, "unit": "%"}, {"measurement": "viability, T/C", "setting": "[9]", "result": 83.8, "unit": "%"}, {"measurement": "viability, T/C", "setting": "[10]", "result": 102, "unit": "%"}, {"measurement": "viability, T/C", "setting": "[11]", "result": 114, "unit": "%"}, {"measurement": "viability, T/C", "setting": "[12]", "result": 80.4, "unit": "%"}, {"measurement": "viability, T/C", "setting": "second compound 0.316 µM, first compound 3.16 µM", "result": 89.2, "unit": "%"}, {"measurement": "viability, T/C", "setting": "second compound 0.316 µM, first compound 10 µM", "result": 77.7, "unit": "%"}, {"measurement": "viability, T/C", "setting": "[13]", "result": 97.6, "unit": "%"}, {"measurement": "viability, T/C", "setting": "[14]", "result": 97.3, "unit": "%"}, {"measurement": "viability, T/C", "setting": "[15]", "result": 102, "unit": "%"}, {"measurement": "viability, T/C", "setting": "[16]", "result": 99.6, "unit": "%"}, {"measurement": "viability, T/C", "setting": "second compound 1 µM, first compound 3.16 µM", "result": 93.2, "unit": "%"}, {"measurement": "viability, T/C", "setting": "second compound 1 µM, first compound 10 µM", "result": 88, "unit": "%"}, {"measurement": "viability, T/C", "setting": "[17]", "result": 98.4, "unit": "%"}, {"measurement": "viability, T/C", "setting": "[18]", "result": 97.8, "unit": "%"}, {"measurement": "viability, T/C", "setting": "[19]", "result": 90.7, "unit": "%"}, {"measurement": "viability, T/C", "setting": "[20]", "result": 88, "unit": "%"}, {"measurement": "viability, T/C", "setting": "second compound 3.16 µM, first compound 3.16 µM", "result": 80, "unit": "%"}, {"measurement": "viability, T/C", "setting": "second compound 3.16 µM, first compound 10 µM", "result": 89.8, "unit": "%"}, {"measurement": "viability, T/C", "setting": "[21]", "result": 103, "unit": "%"}, {"measurement": "viability, T/C", "setting": "[22]", "result": 95.8, "unit": "%"}, {"measurement": "viability, T/C", "setting": "[23]", "result": 90.9, "unit": "%"}, {"measurement": "viability, T/C", "setting": "[24]", "result": 82.6, "unit": "%"}, {"measurement": "viability, T/C", "setting": "second compound 10 µM, first compound 3.16 µM", "result": 80.1, "unit": "%"}, {"measurement": "viability, T/C", "setting": "second compound 10 µM, first compound 10 µM", "result": 85.5, "unit": "%"}]}]}
